Measurements published in US4803221A, “Anthracene derivatives” (priority 1987, dated 1989).
Structures can show the parent of a compound that is named as a salt.

Key:
Herpes simplex 1/vero = Herpes simplex 1/vero plaque inhibition screen; type: cell-based; settings: for Zone of Inhibition: plaque inhibition screen
Source text: The column headings labeled Score, Toxicity, and Zone of Inhibition refer to the plaque inhibition screen while the IC50 heading to the plaque reduction screen.

[1] = system: lymphocytic leukemia P388/0; assay: Lymphocytic Leukemia P388/0 Test; type: in vivo, mouse (CD2-F1); parameters: LD20: unit: mg/kg; settings: ip days 1, 5, 9; for LD20: doses on a mg/kg basis; for T/C × 100% (Excluding 30 Day Survivors): median survival time treated/control, at the optimal dose of the compound (Table I), active if ≥120%
Source text: (§1) Methods for evaluating the antitumor activity of these compounds are essentially those used in the Tumor Panel by the Developmental Therapeutics Program, Division of Cancer Treatment, National Cancer Institute, A. Goldin, et al., Methods in Cancer Research, Vol. XVI, p.165, Academic Press (1979). Some modifications, in dose level and schedule have been made to increase the testing efficiency.
(§2) CD2-F1 mice, of the same sex, weighing 20±3 g are used for this test. Control and test animals are injected intraperitoneally with a suspension of ~10^6 viable P388/0 tumor cells on day 0. In each test, several dose levels which bracket the LD20 of the compound are evaluated; each dose level group contains six animals. The test compounds are prepared either in physiologic saline containing 0.05% Tween 80 or distilled water containing 5% dextrose and are administered intraperitoneally on days 1, 5, and 9 relative to tumor implant. Doses are on a mg/kg basis according to individual animals' body weights. The day of death for each animal is recorded, the median identified for each group and the ratios of median survival time for treated (T)/control (C) Groups are calculated. The criterion for activity is T/C×100≥120%.

[2] = Lymphocytic Leukemia P388/0 Test; type: in vivo, mouse (CD2-F1); parameters: LD20: unit: mg/kg; settings: mouse, in vivo; ip days 1, 5, 9; doses on a mg/kg basis; read-out: highest nontoxic dose where the LD20 was not determined (values in parentheses in LD20 column)
Source text: as §1, §2

Compound | Toxicity (Herpes simplex 1/vero) | LD20 [1] | T/C × 100% (Excluding 30 Day Survivors) [1] | MTD [2] [mg/kg] | Zone of Inhibition (Herpes simplex 1/vero)
2-(((2-Ethyl-9-anthracenyl)methyl)amino)-2-methyl-1,3-propanediol and 2-(((3-ethyl-9-anthracenyl)methyl)amino)-2-methyl-1,3-propanediol hydrochloride.1/4H2 O [Example 31C] | Y | – | – | – | –
C[C@H](O)[C@@](C)(CO)NCc1c2ccccc2cc2ccccc12 (relative stereo) [Example 30G, (+-)(2R*,3S*)-2-((9-Anthracenylmethyl)amino)-2-methyl-1,3-butanediol hydrochloride 1/4H2 O] | – | 180 | +136% | – | –
CC(CO)(CO)NCc1c2ccccc2c(CCCl)c2ccccc12.Cl [Example 4B, 2-(((10-(2-chloroethyl)-9-anthracenyl)methyl)amino)-2-methyl-1,3-propanediol hydrochloride] | – | – | +225% | 300 | –
CC(CO)(CO)NCc1c2ccccc2c(Cl)c2c(Cl)cccc12.Cl [Example 5C, 2-(((4,10-dichloro-9-anthracenyl)methyl)amino)-2-methyl-1,3-propanediol hydrochloride] | – | – | +204% | 300 | –
CC(CO)(CO)NCc1c2ccccc2c(CO)c2ccccc12 [Example 6, 2-(((10-Hydroxymethyl-9-anthracenyl)methyl)amino)-2-methyl-1,3-propanediol hydrochloride 1/4H2 O] | – | 180 | +170% | – | –
CC(CO)(CO)NCc1c2ccccc2c(Br)c2ccccc12.Cl [Example 8B, 2-(((10-Bromo-9-anthracenyl)methyl)amino)-2-methyl-1,3-propanediol hydrochloride] | – | – | +200% | 450 | –
C[S+]([O-])c1c2ccccc2c(CNC(C)(CO)CO)c2ccccc12.Cl (stereo not shown) [Example 12B, 2-Methyl-2-(((10-methylsulfinyl-9-anthracenyl)methyl)amino)-1,3-propanediol hydrochloride] | – | 55 | +220% | – | –
CC(CO)(CO)NCc1c2ccccc2c(C#N)c2ccccc12.Cl [Example 14B, 10-((1,1-Bis(hydroxymethyl)ethylamino)methyl)-9-anthracenecarbonitrile hydrochloride] | – | 387 | +190% | – | –
CC(CO)(CO)NCc1cccc2cc3ccccc3cc12 [Example 15E, 2-((1-Anthracenylmethyl)amino)-2-methyl-1,3-propanediol hydrochloride] | – | 7 | +204% | – | –
CC(CO)(CO)NCc1cccc2c(Br)c3ccccc3cc12.Cl [Example 16C, 2-(((10-Bromo-1-anthracenyl)methyl)amino)-2-methyl-1,3-propanediol hydrochloride] | – | – | +225% | 300 | –
CC(CO)(CO)NCc1c2ccccc2cc2ccc(Cl)cc12.Cl [Example 17C, 2-(((2-Chloro-9-anthracenyl)methyl)amino)-2-methyl-1,3-propanediol hydrochloride] | – | 150 | +170% | – | –
CC(CO)(CO)NCc1c2ccccc2cc2cc(Cl)ccc12 [Example 18, 2-(((3-Chloro-9-anthracenyl)methyl)amino-2-methyl-1,3-propanediol hydrochloride] | – | – | +181% | 675 | –
CCSc1c2ccccc2c(CNC(C)(CO)CO)c2ccccc12.Cl [Example 19B, 2-(((10-ethylthio-9-anthracenyl)methyl)amino)-2-methyl-1,3-propanediol hydrochloride] | – | 625 | +145% | – | –
CC(CO)(CO)NCc1c2ccccc2c(SCCO)c2ccccc12.Cl [Example 20B, 2-(((10-(2-hydroxyethylthio)-9-anthracenyl)methyl)amino)-2-methyl-1,3-propanediol hydrochloride] | – | 440 | +145% | – | –
Cl.OCC(CO)(CO)NCc1c2ccccc2c(Cl)c2ccccc12 [Example 21, 2-(((10-Chloro-9-anthracenyl)methyl)amino)-2-hydroxymethyl-1,3-propanediol hydrochloride] | – | 440 | +140% | – | –
CC(CO)(CO)NCc1c2ccccc2c(Cl)c2ccc(Cl)cc12.Cl [Example 22C, 2-(((2,10-dichloro-9-anthracenyl)methyl)amino)-2-methyl-1,3-propanediol hydrochloride] | – | – | +200% | 400 | –

Compound | Toxicity (Herpes simplex 1/vero) | LD20 [1] | T/C × 100% (Excluding 30 Day Survivors) [1] | MTD [2] [mg/kg] | Zone of Inhibition (Herpes simplex 1/vero)
CC(CO)(CO)NCc1c2ccccc2c(Cl)c2cc(Cl)ccc12.Cl [Example 23, 2-(((3,10-dichloro-9-anthracenyl)methyl)amino)-2-methyl-1,3-propanediol hydrochloride] | – | – | +210% | 300 | –
CCOc1c2ccccc2c(CNC(C)(CO)CO)c2ccccc12.Cl [Example 24B, 2-(((10-Ethoxy-9-anthracenyl)methyl)amino)-2-methyl-1,3-propanediol hydrochloride] | – | 96 | +218% | – | –
CC(CO)(CO)NCc1c2ccccc2c(S(C)(=O)=O)c2ccccc12.Cl [Example 26B, 2-Methyl-2-(((10-methylsulfonyl-9-anthracenyl)methyl)amino)-1,3-propanediol hydrochloride] | – | – | +228% | 300 | –
COCCOc1c2ccccc2c(CNC(C)(CO)CO)c2ccccc12 [Example 27B, 2-(((10-(2-Methoxyethoxy)-9-anthracenyl)methyl)amino)-2-methyl-1,3-propanediol hydrochloride 1/4H2 O] | – | 180 | +260% | – | –
CC(CO)(CO)NCc1c2ccccc2c(N2CCOCC2)c2ccccc12 [Example 28B, 2-Methyl-2-((((10-N-morpholino)-9-anthracenyl)methyl)amino)-1,3-propanediol methanesulfonate.3/4H2 O] | – | 225 | +235% | – | –
CC(CO)(CO)NCc1c2ccccc2c(-n2ccnc2)c2ccccc12 [Example 29B, 2-(((10-(1H-Imidazol-1-yl)-9-anthracenyl)methyl)amino)-2-methyl-1,3-propanediol hydrochloride 11/10 H2 O] | – | 100 | +235% | – | 32
CCOCC(CO)(CO)NCc1c2ccccc2cc2ccccc12.Cl [Example 32C, 2-((9-Anthracenylmethyl)amino)-2-ethoxymethyl-1,3-propanediol hydrochloride] | – | 625 | +130% | – | 23.2
COCC(C)(CO)NCc1c2ccccc2cc2ccccc12.Cl (stereo not shown) [Example 33D, 2-((9-Anthracenylmethyl)amino)-3-methoxy-2-methyl-1-propanol hydrochloride] | – | – | – | – | 35
CC(C)C(CO)(CO)NCc1c2ccccc2cc2ccccc12 [Example 35C, 2-((9-Anthracenylmethyl)amino)-2-isopropyl-1,3-propanediol methanesulfonate] | – | 450 | +150% | – | –
CC(CO)(CCO)NCc1c2ccccc2cc2ccccc12.CS(=O)(=O)O (stereo not shown) [Example 36G, 2-((9-anthracenylmethyl)amino)-2-methyl-1,4-butanediol methanesulfonate] | – | 120 | +125% | – | –
CC(CO)(CO)NCc1cccc2c(Cl)c3ccccc3cc12 [Example 37E, 2-(((10-Chloro-1-anthracenyl)methyl)amino)-2-methyl-1,3-propanediol methanesulfonate.9/20 H2 O] | – | 140 | +145% | – | –
Cc1cc2c(Cl)c3ccccc3c(CNC(C)(CO)CO)c2cc1C.Cl [Example 40B, 2-(((10-Chloro-2,3-dimethyl-9-anthracenyl)methyl)amino)-2-methyl-1,3-propanediol hydrochloride] | – | – | +205% | 300 | –
CC(CO)(CO)NCc1c2ccccc2c(Cl)c2ccc(C(C)(C)C)cc12.Cl [Example 41C, 2-(((2-tert-butyl-10-chloro-9-anthracenyl)methyl)amino)-2-methyl-1,3-propanediol hydrochloride.1/4H2 O] | – | – | +125% | – | –
CCCCOc1c2ccccc2c(CNC(C)(CO)CO)c2ccccc12.Cl [Example 44F, 2-(((10-Butoxy-9-anthracenyl)methyl)amino)-2-methyl-1,3-propanediol hydrochloride] | – | 120 | +120% | – | –
CCCCc1c2ccccc2c(CNC(C)(CO)CO)c2ccccc12.Cl [Example 45B, 2-(((10-Butyl-9-anthracenyl)methyl)amino)-2-methyl-1,3-propanediol hydrochloride] | – | 212 | +170% | – | –
